Measured values as given in patent publication US20190022117A1, “COMBINATION THERAPY” (NuCana plc, priority 2015, published 2019).
Like-named read-outs stand apart in the source and are kept apart here.

How the values were obtained:
5637 = experiment: CellTiter-Glo cytotoxicity assay, single agents (Stage 1); assay type: cell-based; settings: CTG assay 72 h
Method: (§1) A2780, SK-OV-3, OVCAR-3, NCI-H460, NCI-H1975, NCI-H2122, 5637 and HT1376 were cultured in RPMI Medium 1640 (Invitrogen-22400105) supplemented with 10% fetal bovine serum (FBS; Invitrogen-10099141). All the cell lines were maintained in a humidified incubator at 37° C. with 5% CO2. Cell culture media and supplements were purchased from Invitrogen, and tissue culture flasks were purchased from Corning, 96-well plates and 384-well plates were purchased from Greiner. CellTiter-Glo Luminescent Cell Viability Assay kits were purchased from Promega (Promega-G7573), cells counter Vi-Cell was purchased from Beckman, detection instrument Envision was purchased from PerkinElmer.
(§2) Paclitaxcel (used as a reference) and cisplatin were purchased from SELLECK, and they were of highest purity available. All compounds attained solubility in DMSO and when diluted into culture media. DMSO, compounds solutions and culture media were warmed to 37° C. for the solution preparation and dilutions.
(§3) Eight cell lines were allowed to adhere to 96-well plates overnight (100 μL/well), for drug treatments with 3.16 fold dilution, 9 dose points, triplicates or vehicle control, compound stock solutions were prepared in DMSO and added to the wells to give the indicated final drug concentrations. Final DMSO concentration was 0.5%. Cellular ATP concentrations were assessed by using the CellTiter-Glo Cell Viability Assay as per the manufacturer's instructions 72 h after drug addition.
(§4) In Stage 1 the IC50 (using 5 or more concentrations) of each individual compound (cisplatin, gemcitabine and NUC-1031) in the relevant cell lines was determined.

A2780 = experiment: as above; assay type: cell-based; settings: CTG assay 72 h; for IC50: Homo sapiens
Method: as §1, §2, §3, §4

HT1376 = experiment: as above; assay type: cell-based; settings: for IC50: Homo sapiens, HT-1376, CTG assay 72 h
Method: as §1, §2, §3, §4

NCI-H1975 = experiment: as above; assay type: cell-based; settings: CTG assay 72 h; for IC50: Homo sapiens
Method: as §1, §2, §3, §4

NCI-H460 = experiment: as above; assay type: cell-based; settings: CTG assay 72 h; for IC50: Homo sapiens
Method: as §1, §2, §3, §4

OVCAR-3 = experiment: as above; assay type: cell-based; settings: CTG assay 72 h; for IC50: Homo sapiens
Method: as §1, §2, §3, §4

SK-OV3 = experiment: as above; assay type: cell-based; settings: for IC50: Homo sapiens, SK-OV-3, CTG assay 72 h
Method: as §1, §2, §3, §4

[1] = ABC-008 clinical study (NUC-1031 in combination with cisplatin), plasma pharmacokinetics; assay type: in vivo, human
Method: Initial pharmacokinetic analysis was conducted on samples obtained from the first three patients on the ABC-008 clinical study.
Patient 1: —Metastatic Biliary Tract Carcinoma—Starting dose: 625 mg/m^2 (S)-NUC-1031+25 mg/m^2 cisplatin
Patient 2: —Metastatic Biliary Tract Carcinoma—Starting dose: 625 mg/m^2 (S)-NUC-1031+25 mg/m^2 cisplatin
Patient 3: —Metastatic Biliary Tract Carcinoma—Starting dose: 625 mg/m^2 (S)-NUC-1031+25 mg/m^2 cisplatin
Both NUC-1031 and cisplatin were administered on days 1 and 8 of a 21 day cycle.
An appropriate dosage of 625 mg/m^2 of NUC-1031 was prepared in a Luerlock syringe. The dosage given was based on the subject's height and weight using a standard body surface area (BSA) calculation. A polyethylene extension line was primed with up to 1.5 ml of Flushing Solution, prior to connecting the syringe containing NUC-1031 to the extension line.
The extension line was connected to the patient's Central Venous Access Device (CVAD), and NUC-1031 was injected at a rate of 20 ml/hour using a syringe pump.
Once the injection was complete the NUC-1031 syringe was disconnected from the extension line, and the extension line was then flushed with an additional volume of up to 3 ml of Flushing solution.

[2] = ProGem1 clinical study (NUC-1031 alone), intracellular dFdCTP pharmacokinetics; assay type: in vivo, human; settings: ProGem1 (n = 67), NUC-1031 as a single agent; no normalisation
Text: ProGem1 was a first-time-in-human (FTIH), phase I, open label, two stage study to investigate the safety, tolerability, clinical efficacy, pharmacokinetics (PK) and pharmacodynamics (PD) of NUC-1031 given in two parallel dosing schedules in subjects with advanced solid malignancies (EudraCT Number: 2011-005232-26). Subjects had the following tumour types at study entry: colorectal cancer (7 subjects), unknown primary (3), ovarian cancer (12), breast cancer (4), pancreatic cancer (9), cholangiocarcinoma (7), endometrial cancer (3), cervical cancer (2), lung cancer (7), mesothelioma (3), oesophageal cancer (3), cancer of the fallopian tube (1), trophoblast (1), renal cancer (1), gastric cancer (1), anal cancer (1), cancer of the thymus (1) and osteosarcoma (1).

[3] = absolute IC50, read-out: Ab IC50
[4] = ABC-008 (with cisplatin) compared to ProGem1 (single agent NUC-1031)

C[C@H](NP(=O)(OC[C@H]1O[C@@H](n2ccc(N)nc2=O)C(F)(F)[C@H]1O)Oc1ccccc1)C(=O)OCc1ccccc1 (stereo partly drawn) [NUC-1031, 2′-Deoxy-2′,2′-difluoro-D-cytidine-5′-O-[phenyl (benzoxy-L-alaninyl)] phosphate]
Max Inhibition_% 5637: 77.88%
IC50 5637; [3]: 200 nM
IC50 (5637; relative IC50, read-out: IC50): 120 nM
Max Inhibition_% (A2780): 79.15%
IC50 (A2780; [3]): 25 nM
IC50 (A2780; relative IC50, read-out: IC50): 16 nM
Max Inhibition_% (HT1376; CTG assay 72 h): −2.54%
IC50 (HT1376; [3]): > 1980 nM
IC50 (HT1376; relative IC50, read-out: IC50): > 1980 nM
Max Inhibition_% (NCI-H1975): 37.91%
IC50 (NCI-H1975; [3]): > 1980 nM
IC50 (NCI-H1975; relative IC50, read-out: IC50): 370 nM
Max Inhibition_% (NCI-H460): 91.98%
IC50 (NCI-H460; [3]): 40 nM
IC50 (NCI-H460; relative IC50, read-out: IC50): 40 nM
Max Inhibition_% (OVCAR-3): 11.76%
IC50 (OVCAR-3; [3]): > 1980 nM
IC50 (OVCAR-3; relative IC50, read-out: IC50): 200 nM
Max Inhibition_% (SK-OV3; CTG assay 72 h): 61.59%
IC50 (SK-OV3; [3]): 70 nM
IC50 (SK-OV3; relative IC50, read-out: IC50): 60 nM
AUC increase, NUC-1031 plasma [1, 4]: 2.1 fold
Cmax increase, NUC-1031 plasma [1, 4]: 1.9 fold
increase in half-life, NUC-1031 plasma PK parameters ([1]; ABC-008 (with cisplatin) compared to single agent NUC-1031): 3.6 fold
Mean AUC0-24, intracellular dFdCTP [2]: 1379.0 pmol/million cells · hr
Mean Cmax, intracellular dFdCTP [2]: 391.8 pmol/million cells
